In PMC5571044 (Scientific Reports, 2017):

Legend:
[1] = system: FluA Udorn replicon with PB2 N510T; assay type: cell-based, influenza A/H3N2/Udorn/72 in 293 T cells
PB2long N510T mutant = assay type: binding, influenza A/Udorn/307/1972(H3N2)

`O=C(O)[C@H]1C2CCC(CC2)[C@@H]1Nc1nc(-c2c[nH]c3ncc(F)cc23)ncc1F` [VX-787] was tested, and the “fold loss of cellular EC50, N510T vs WT replicon” value [1] was 90 fold and the “KD fold change, PB2long N510T” value (PB2long N510T mutant) was 90 fold.
